In patent publication US20090215894A1, “INHIBITION OF PHOSPHATASE ACTIVITY OF SOLUBLE EPOXIDE HYDROLASE AMINO TERMINUS AND USES THEREOF” (REGENTS OF THE UNIVERSITY OF CALIFORNIA, priority 2005, published 2009):
Structures can show the parent of a compound that is named as a salt. Where two headings read alike, the source gives them in different places.

Tests used:
Format in all cases: biochemical
Nterm-phos [1] = target: T1, Nterm-phos (Homo sapiens, UniProt P34913); assay: Specific activity of Nterm-phos for lipid-phosphates (phosphoric acid formed); conditions: substrate hydrolysis, 30° C., average ± SD of three experiments
T1 construct: use of a truncated enzyme from crude extract versus purified full-length human sEH; made in house; host or cells: baculovirus expression system (insect cells)
T1 sequence (P34913 1-555): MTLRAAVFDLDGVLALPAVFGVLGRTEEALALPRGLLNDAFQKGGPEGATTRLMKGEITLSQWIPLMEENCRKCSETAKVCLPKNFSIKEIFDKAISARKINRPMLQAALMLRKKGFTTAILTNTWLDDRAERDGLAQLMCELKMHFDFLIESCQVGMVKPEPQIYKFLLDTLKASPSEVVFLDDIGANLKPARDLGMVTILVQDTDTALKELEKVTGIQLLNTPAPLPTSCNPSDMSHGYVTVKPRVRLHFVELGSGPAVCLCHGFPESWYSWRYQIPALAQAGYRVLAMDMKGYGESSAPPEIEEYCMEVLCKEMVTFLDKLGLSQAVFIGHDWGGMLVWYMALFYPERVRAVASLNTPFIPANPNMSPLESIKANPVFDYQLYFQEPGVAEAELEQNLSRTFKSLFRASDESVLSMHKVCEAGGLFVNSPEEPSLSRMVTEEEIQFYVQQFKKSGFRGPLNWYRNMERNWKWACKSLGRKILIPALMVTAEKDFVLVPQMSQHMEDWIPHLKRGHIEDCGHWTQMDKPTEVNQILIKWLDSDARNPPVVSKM
Protocol: Nterm-Phos activity was measured in Bis-Tris HCl buffer (25 mM PH 7.0) containing 0.1 mg/mL of Fraction V BSA and 1 mM of MgCl2 (buffer A) at 30° C. […] APHP activity was measured as described using 7 as substrate (Newman et al., Proc. Natl. Acad. Sci. USA. 100, 1558-1563 (2003)). Compounds 34-37 were incubated separately with the enzyme for a given time, and then the reaction was stopped by the addition of 100 μL of methanol. The reaction products for compounds 34-37 were extracted with 500 μL of ethyl acetate. The quantification of the alcohol products was performed by LC/MS analysis of 2 μL of the organic phase. The Cterm-EH activity was measured as described previously in buffer A, using either racemic 4-nitrophenyl-trans-2,3-epoxy-3-phenylpropyl carbonate (Dietze et al., Anal. Biochem. 216, 176-187 (1994)) or racemic [^3H]-trans-1,3-diphenylpropene oxide as substrate (Borhan et al., Anal. Biochem. 231, 188-200 (1995)). This latter substrate was also used to measure the activity of the cress sEH and the truncated human sEH.

Human Cterm-EH = target: T2, Human Cterm-EH (Homo sapiens, UniProt P34913); assay: Inhibition of Cterm-EH activity by lipid-phosphates, fluorescent assay
T2 construct: use of a truncated enzyme from crude extract versus purified full-length human sEH; made in house; host or cells: baculovirus expression system (insect cells)
T2 sequence (P34913 1-555): T1 sequence (P34913 1-555)

[2] = target: T3, Human sEH Cterm-EH activity (Homo sapiens, UniProt P34913); assay: Cterm-EH inhibition IC50 with 4-nitrophenyl-trans-2,3-epoxy-3-phenylpropyl carbonate
T3 construct: use of a truncated enzyme from crude extract versus purified full-length human sEH; made in house; host or cells: baculovirus expression system (insect cells)
T3 sequence (P34913 1-555): T1 sequence (P34913 1-555)

Nterm-phos [3] = target: T1, Nterm-phos; assay: Kinetic parameters of Nterm-phos for poly-isoprenyl phosphates (LC/MS of alcohol products)
Protocol: Nterm-Phos activity was measured in Bis-Tris HCl buffer (25 mM PH 7.0) containing 0.1 mg/mL of Fraction V BSA and 1 mM of MgCl2 (buffer A) at 30° C. […] APHP activity was measured as described using 7 as substrate (Newman et al., Proc. Natl. Acad. Sci. […] The quantification of the alcohol products was performed by LC/MS analysis of 2 μL of the organic phase. […] This latter substrate was also used to measure the activity of the cress sEH and the truncated human sEH. […] The Shimadzu […] HPLC system (Shimadzu Scientific Instruments, Columbia, Md.) was set at a flow rate of 0.2 mL/min, and a 2.1×30 mm XTerraTM MS C18 3.5 μm column (Waters, Milford, Mass.) held at 20° C. The samples were kept at 10° C. in the auto-sampler. […] A solvent system consisting of water with 0.1% formic acid (solvent A) and acetonitrile with 0.1% formic acid (solvent B) was used and set at a flow rate of 0.25 mL/min. […] Pyrophosphate was analyzed by direct injection of 5 μL sample into the mass spectrometer at 0.05 mL/min flow rate of 50% A and 50% B. Analytes were detected by electrospray ionization-tandem quadrupole mass spectrometry in multiple reaction monitoring mode (MRM) using a Quattro Premier tandem quadrupole mass spectrometer (Micromass, Manchester, UK). Nitrogen gas flow rates were fixed with a cone gas flow of 25 L/h and a desolvation gas flow of 700 L/h. Electrospray ionization of geraniol, farnesol and geranylgeraniol was performed in positive mode with a capillary voltage fixed at 3.20 kV and a cone voltage fixed at 25 V using a source temperature of 125° C. and a desolvation temperature of 350° C. Capillary voltage and cone voltage were optimized in an infusion experiment. […] However, intense [M+H-18]^+ ions were produced in the source due to water loss. Therefore, these ions were selected as precursor ions to set MRM acquisition mode. Monitored transitions were 137>95 m/z for geraniol, 205>121 m/z for farnesol, and 273>149 m/z for geranylgeraniol at collision voltage of 15 V for all analytes. Argon was used as collision gas (2.2×10^-3 Torr). […] Chromatogram integration and analyte quantification was performed with QuantLynx module of the MassLynx 4.0 software (Micromass, Manchester, UK).

[4] = substrate 50 μM, 5 min preincubation, 30° C., read-out: IC50

SMILES: CC(C)=CCC/C(C)=C/CC/C(C)=C/C1C(COP(=O)(O)OP(=O)(O)O)C1(C)CC/C=C(\C)CCC=C(C)C (stereo in doubt) [Pre-squalene diphosphate (PSDP), Pre-squalene diphosphate]
- Spec. Act. (Nterm-phos [1]): 30 ± 15 nmol/min/mg
- Inhibition (%) (Human Cterm-EH; [LP] 14 μM): 86%

SMILES: CC(C)=CCC/C(C)=C/CC/C(C)=C/C1C(COP(=O)(O)O)C1(C)CC/C=C(\C)CCC=C(C)C (stereo in doubt) [Pre-squalene monophosphate (PSMP), Pre-squalene monophosphate]
- Spec. Act. (Nterm-phos [1]): 54 ± 22 nmol/min/mg
- Inhibition (%) (Human Cterm-EH; [LP] 14 μM): 30%

SMILES: CCCCCCCC/C=C\CCCCCCCC(=O)OCC(COP(=O)(O)O)OC(=O)CCCCCCC/C=C\CCCCCCCC (stereo not drawn) [1,2-Dioleoyl-glycerol-3-phosphate (DOGP), 1,2-Dioleoyl-glycerol-3-phosphate]
- Spec. Act. (Nterm-phos [1]): <0.3 nmol/min/mg

SMILES: CCCCCCCCCCCCCCCCC(C(=O)O)S(=O)(=O)O (stereo not drawn) [Compound 10, α-Sulfostearic acid]
- IC50 [2, 4]: > 100 µM

SMILES: CCCCCCCCCCCCS(=O)(=O)O [Compound 12, Sodium dodecyl-sulfonate]
- IC50 [2, 4]: > 100 µM

SMILES: O=[N+]([O-])c1ccc(OS(=O)(=O)O)cc1 [Compound 13, 4-Nitrophenyl sulfate]
- IC50 [2, 4]: > 100 µM

SMILES: C[C@H](CCC(=O)NCCS(=O)(=O)O)[C@H]1CC[C@H]2[C@@H]3CC[C@@H]4C[C@H](OS(=O)(=O)O)CC[C@]4(C)[C@H]3CC[C@]12C [Compound 14, Taurolithocholic acid 3-sulfate]
- IC50 ([2]; read-out: IC50): 90 ± 5 µM

SMILES: C[C@H](CCC(=O)NCCS(=O)(=O)O)[C@H]1CC[C@H]2[C@@H]3[C@H](O)C[C@@H]4C[C@H](O)CC[C@]4(C)[C@H]3C[C@H](O)[C@]12C [Compound 15, Taurocholic acid]
- IC50 [2]: > 100 µM

SMILES: C[C@]12CC[C@@H]3c4ccc(OS(=O)(=O)O)cc4CC[C@H]3[C@@H]1CCC2=O [Compound 16, Estrone-3-sulfate]
- IC50 [2, 4]: > 100 µM

SMILES: O=C[C@H](O)[C@@H](O)[C@@H](O)[C@H](O)COS(=O)(=O)O [Compound 17, D-Galactose-6-sulfate]
- IC50 [2, 4]: > 100 µM

SMILES: O=C1O[C@H]([C@@H](O)CO)C(O)=C1OS(=O)(=O)O [Compound 18, L-Ascorbic acid 2-sulfate dipotassium salt]
- IC50 [2, 4]: > 100 µM

SMILES: CC(=O)N[C@H]1C(O)O[C@H](CO)[C@H](OS(=O)(=O)O)[C@@H]1O (stereo partly drawn) [Compound 19, N-Acetyl-D-galactosamine 4-sulfate]
- IC50 [2, 4]: > 100 µM

SMILES: CC(C)OP(=O)(CP(=O)(OC(C)C)OC(C)C)OC(C)C [Compound 20, Tetra-isopropyl-methylene diphosphonate]
- IC50 [2, 4]: > 100 µM

SMILES: CCOP(=O)(OCC)C(=O)c1ccccc1 [Compound 22, Diethyl-benzoylphosphonate]
- IC50 [2]: > 100 µM

SMILES: CCOP(=O)(C/C=C/c1ccccc1)OCC [Compound 24, Diethyl trans-cinnamyl-phosphonate]
- IC50 [2]: > 100 µM

SMILES: CCOP(=O)(Cc1ccc(C)cc1)OCC [Compound 25, Diethyl 4-methylbenzyl-phosphonate]
- IC50 [2]: > 100 µM

SMILES: CCCCCCCCOP(=O)(OCCCCCCCC)c1ccccc1 [Compound 27, Dioctyl-phenyl-phosphonate]
- IC50 [2, 4]: 92 ± 3 µM

SMILES: O=P(O)(OCc1ccccc1)OCc1ccccc1 [Compound 28, Di-benzyl-phosphate]
- IC50 [2, 4]: > 100 µM

SMILES: CCCCCC(=O)CP(=O)(OC)OC [Compound 29, Dimethyl (2-oxoheptyl)-phosphonate]
- IC50 [2]: > 100 µM

SMILES: CCOP(=O)(OCC)C(O)C(F)(F)F (stereo not drawn) [Compound 30, Diethyl (2,2,2-trifluoro-1-hydroxyethyl)-phosphonate]
- IC50 [2]: > 100 µM

SMILES: CCOP(=O)(CSCC)OCC [Compound 31, Diethyl (ethyltiomethyl)phosphonate]
- IC50 [2]: > 100 µM

SMILES: CCCCCCCCCCCCP(=O)(O)O [Compound 33, Dodecyl phosphonic acid]
- IC50 [2, 4]: > 100 µM

SMILES: CC(C)=CCC/C(C)=C/COP(=O)(O)OP(=O)(O)O [Compound 34, Geranyl-pyrophosphate]
- Km (Nterm-phos [3]; linear curve, above the highest concentration tested): > 5 µM

SMILES: CC(C)=CCC/C(C)=C/CC/C(C)=C/COP(=O)(O)OP(=O)(O)O [Compound 35, Farnesyl-pyrophosphate]
- Spec. Act. (Nterm-phos [1]): 32 ± 7 nmol/min/mg
- Inhibition (%) (Human Cterm-EH; [LP] 10 μM): 60%
- Hill coefficient (Nterm-phos [3]; compound as substrate): 1.0 ± 0.1
- Km (Nterm-phos [3]; compound as substrate): 10.1 ± 1.1 µM
- VM (Nterm-phos [3]; compound as substrate): 12.5 ± 1.0 nmol/min/mg

SMILES: CC(C)=CCC/C(C)=C/CC/C(C)=C/CC/C(C)=C/COP(=O)(O)OP(=O)(O)O [Compound 36, Geranylgeranyl-pyrophosphate]
- Inhibition (%) (Human Cterm-EH; [LP] 10 μM): 45%
- Hill coefficient (Nterm-phos [3]; compound as substrate): 1.0 ± 0.2
- Km (Nterm-phos [3]; compound as substrate): 3.4 ± 1.6 µM
- VM (Nterm-phos [3]; compound as substrate): 4.7 ± 1.1 nmol/min/mg

SMILES: CC(C)=CCC/C(C)=C\CC/C(C)=C\COP(=O)(O)O [Compound 37, Farnesyl monophosphate]
- hydrolyzed faster than the corresponding pyrophosphate derivative (Nterm-phos [3]): approximately 50 fold
- Hill coefficient (Nterm-phos [3]; compound as substrate): 1.0 ± 0.1
- Km (Nterm-phos [3]; compound as substrate): 5.7 ± 0.4 µM
- VM (Nterm-phos [3]; compound as substrate): 303 ± 19 nmol/min/mg

SMILES: CCCCCCCCCCCCCC=CC(O)C(COP(=O)(O)O)NC(=O)CCCCCCC (stereo not drawn) [N-Octyl-ceramide-1-phosphate (OCP), N-Octyl-ceramide-1-phosphate]
- Spec. Act. (Nterm-phos [1]): <0.3 nmol/min/mg
- Inhibition (%) (Human Cterm-EH; [LP] 50 μM): 31%

SMILES: CCCCCCCCCCCCC/C=C/[C@@H](O)[C@@H](N)COP(=O)(O)O [Sphingosine-1-phosphate (S1P), Sphingosine-1-phosphate]
- Spec. Act. (Nterm-phos [1]): 1.1 ± 0.1 nmol/min/mg
- inhibition at 40 µM (Human Cterm-EH; [LP] 40 μM): 2%
